Results: ChEMBL document CHEMBL6177964 (Eur J Med Chem, 2025)
The source made the active and inactive calls. The rule behind the calls is not given here. Residues, ends and D or L forms follow the SMILES beside them.

What was measured:
[1] = target: T1, Angiotensin-converting enzyme (Homo sapiens, UniProt P12821); assay: Inhibition of ACE (unknown origin) preincubated with compound for 5 mins and measured after 60 mins
[2] = target: T1, Angiotensin-converting enzyme; assay: Binding affinity to ACE (unknown origin) assessed as change in entropy (-TdeltaS) at 800 to 1400 nM by isothermal titration calorimetric analysis; details: dose 800-1400 nM
[3] = target: T1, Angiotensin-converting enzyme; assay: Binding affinity to ACE (unknown origin) assessed as change in enthalpy at 800 to 1400 nM by isothermal titration calorimetric analysis; details: dose 800-1400 nM
[4] = target: T1, Angiotensin-converting enzyme; assay: Binding affinity to ACE (unknown origin) assessed as change in entropy (deltaS) at 800 to 1400 nM by isothermal titration calorimetric analysis; details: dose 800-1400 nM
[5] = target: T1, Angiotensin-converting enzyme; assay: Binding affinity to ACE (unknown origin) assessed as change in Gibbs free energy at 800 to 1400 nM by isothermal titration calorimetric analysis; details: dose 800-1400 nM
[6] = target: T1, Angiotensin-converting enzyme; assay: Binding affinity to ACE (unknown origin) assessed as dissociation constant by isothermal titration calorimetric analysis
[7] = target: T1, Angiotensin-converting enzyme; assay: Binding affinity to ACE (unknown origin) measured at 20 mins
[8] = target: T1, Angiotensin-converting enzyme; assay: Binding affinity to ACE (unknown origin)

T1 sequence (P12821 whole entry): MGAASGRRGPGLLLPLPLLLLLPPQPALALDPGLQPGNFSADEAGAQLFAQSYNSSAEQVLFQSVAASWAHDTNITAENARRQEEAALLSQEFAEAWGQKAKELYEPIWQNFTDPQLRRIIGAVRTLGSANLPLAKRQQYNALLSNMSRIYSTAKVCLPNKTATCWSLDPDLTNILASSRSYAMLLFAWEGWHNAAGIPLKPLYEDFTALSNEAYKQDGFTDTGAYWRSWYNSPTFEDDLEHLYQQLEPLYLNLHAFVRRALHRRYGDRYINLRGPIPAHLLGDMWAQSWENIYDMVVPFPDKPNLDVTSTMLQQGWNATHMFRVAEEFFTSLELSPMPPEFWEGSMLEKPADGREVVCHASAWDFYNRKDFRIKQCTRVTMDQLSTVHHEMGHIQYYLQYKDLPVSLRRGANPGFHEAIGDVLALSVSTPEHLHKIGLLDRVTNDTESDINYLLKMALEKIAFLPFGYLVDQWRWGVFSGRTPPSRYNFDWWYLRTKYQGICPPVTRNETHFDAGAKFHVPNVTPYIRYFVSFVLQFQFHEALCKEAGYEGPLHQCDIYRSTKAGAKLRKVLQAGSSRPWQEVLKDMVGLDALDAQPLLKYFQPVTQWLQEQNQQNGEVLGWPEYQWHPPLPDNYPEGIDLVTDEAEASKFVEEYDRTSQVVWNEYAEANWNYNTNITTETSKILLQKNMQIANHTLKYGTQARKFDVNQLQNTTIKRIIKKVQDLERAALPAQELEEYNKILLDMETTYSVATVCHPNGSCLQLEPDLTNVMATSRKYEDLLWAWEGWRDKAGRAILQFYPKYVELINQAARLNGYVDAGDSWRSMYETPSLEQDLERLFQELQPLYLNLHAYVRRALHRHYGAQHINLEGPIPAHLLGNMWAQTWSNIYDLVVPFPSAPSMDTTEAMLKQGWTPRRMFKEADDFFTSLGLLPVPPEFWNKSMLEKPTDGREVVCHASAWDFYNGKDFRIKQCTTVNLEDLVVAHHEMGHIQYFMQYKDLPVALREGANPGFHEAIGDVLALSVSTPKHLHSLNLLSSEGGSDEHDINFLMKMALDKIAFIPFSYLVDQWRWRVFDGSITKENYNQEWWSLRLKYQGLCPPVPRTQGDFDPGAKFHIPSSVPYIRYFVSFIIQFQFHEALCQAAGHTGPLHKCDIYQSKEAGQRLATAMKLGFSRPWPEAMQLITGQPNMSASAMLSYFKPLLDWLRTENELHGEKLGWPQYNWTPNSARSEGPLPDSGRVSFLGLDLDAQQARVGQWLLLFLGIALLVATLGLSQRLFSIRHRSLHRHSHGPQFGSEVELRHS

SMILES	IC50 [1]	further results
N=C(N)NCCC[C@H](NC(=O)[C@@H]1CCCN1C(=O)[C@H](CC(N)=O)NC(=O)CN)C(=O)O (H-GNPR-OH)	3050 µM	–
CC(C)[C@H](NC(=O)[C@H](CCCCN)NC(=O)[C@H](C)NC(=O)[C@@H](N)CCCCN)C(=O)O (H-KAKV-OH)	2920 µM	–
C[C@H](NC(=O)[C@@H](N)CCCCN)C(=O)N[C@@H](CCCCN)C(=O)N1CCC[C@H]1C(=O)O (H-KAKP-OH)	7.23 µM	-TdeltaS [2]: -7.51 kcal/mol; deltaH [3]: -1.84 kcal/mol; deltaS [4]: 25.2 cal/mol.K; deltaG [5]: -9.35 kcal/mol; Kd [6]: 0.141 µM; Activity [7]: Active
CC(C)C[C@H](NC(=O)[C@H](CCCCN)NC(=O)[C@H](C)NC(=O)[C@@H](N)CCCCN)C(=O)O (H-KAKL-OH)	2620 µM	–
C[C@H](NC(=O)[C@@H](N)CCCCN)C(=O)N1CCC[C@H]1C(=O)N[C@@H](CCCCN)C(=O)O (H-KAPK-OH)	1450 µM	–
CC(C)C[C@H](N)C(=O)N[C@@H](C)C(=O)N1CCC[C@H]1C(=O)N[C@@H](Cc1ccc(O)cc1)C(=O)N[C@@H](Cc1c[nH]c2ccccc12)C(=O)O (H-LAPYW-OH)	–	IC50 [8]: 5.42 µM
NCC(=O)N[C@@H](CCC(=O)O)C(=O)N1CCC[C@H]1C(=O)N[C@@H](Cc1ccccc1)C(=O)O (H-GEPF-OH)	36.1 µM	–
CC(C)C[C@H](NC(=O)CNC(=O)[C@H](CCC(=O)O)NC(=O)[C@@H]1CCCN1C(=O)[C@@H](N)C(C)C)C(=O)N[C@@H](CC(N)=O)C(=O)N[C@@H](CO)C(=O)N[C@@H](Cc1c[nH]c2ccccc12)C(=O)N1CCC[C@H]1C(=O)N[C@@H](Cc1ccccc1)C(=O)O (H-VPEGLNSWPF-OH)	73.3 µM	–
C[C@H](NC(=O)[C@@H](N)CCCCN)C(=O)N[C@@H](CCCCN)C(=O)N[C@@H](Cc1ccccc1)C(=O)O (H-KAKF-OH)	12.5 µM	–
